How the values were obtained:
[1] = target: CDK2/Cyclin E1 (Homo sapiens, UniProt P24941); assay: CDK2/Cyclin E1 Biochemical Assay (TR-FRET), 0.060 mM ATP; details: 0.15 μM Rb (Ser780)-biotin substrate, pH7.0, 60 min preincubation, 120 min reaction, room temperature
Outline: (§1)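 TR-FRET readout: 665/620 nm ratio from Eu-cryptate anti-pRb(Ser780) antibody plus streptavidin-XL665, converted to % inhibition and fitted (4-parameter logistic) for IC50. Reactions used 0.15 μM biotinylated Rb (Ser780) substrate, compound 0–10 μM, 60 min enzyme–compound preincubation, then 120 min reaction at room temperature.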

[2] = target: CDK1/Cyclin B1 (Homo sapiens, UniProt P06493); assay: CDK1/Cyclin B1 Biochemical Assay (TR-FRET), 0.015 mM ATP; details: 0.15 μM Rb (Ser780)-biotin substrate, pH7.0, 60 min preincubation, 120 min reaction, room temperature
CDK1/Cyclin B1, sequence (P06493 whole entry): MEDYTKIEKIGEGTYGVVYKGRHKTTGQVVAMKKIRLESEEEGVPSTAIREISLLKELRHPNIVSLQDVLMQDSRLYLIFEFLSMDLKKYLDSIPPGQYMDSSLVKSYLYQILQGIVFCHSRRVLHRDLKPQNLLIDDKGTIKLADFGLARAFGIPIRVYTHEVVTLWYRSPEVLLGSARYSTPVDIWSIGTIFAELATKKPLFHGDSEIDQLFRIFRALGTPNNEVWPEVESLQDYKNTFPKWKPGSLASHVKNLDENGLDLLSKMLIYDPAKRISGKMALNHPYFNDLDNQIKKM
CDK1/Cyclin B1, sequence (P14635 whole entry partner): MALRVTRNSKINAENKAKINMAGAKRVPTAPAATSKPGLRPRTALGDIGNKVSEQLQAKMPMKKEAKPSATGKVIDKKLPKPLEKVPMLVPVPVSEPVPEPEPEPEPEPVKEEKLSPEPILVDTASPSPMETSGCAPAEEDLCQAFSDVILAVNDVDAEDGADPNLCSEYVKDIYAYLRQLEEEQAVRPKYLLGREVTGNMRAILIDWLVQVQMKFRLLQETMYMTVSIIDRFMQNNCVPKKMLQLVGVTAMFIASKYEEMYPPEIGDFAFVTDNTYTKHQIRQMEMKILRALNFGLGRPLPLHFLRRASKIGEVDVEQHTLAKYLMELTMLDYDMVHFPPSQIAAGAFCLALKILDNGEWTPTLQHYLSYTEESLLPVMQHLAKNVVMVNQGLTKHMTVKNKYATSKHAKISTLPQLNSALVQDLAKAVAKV
Outline: as §1

IC50 [1] [nM]	IC50 [2] [nM]	SMILES
164	1580	CC(C)NC(=O)O[C@H]1CC[C@@H](c2cc(Nc3ccc4c(c3F)C(F)(F)S(=O)(=O)N4)n[nH]2)C1 (relative stereo) [Example 356, cis-3-(3-((3,3,4-trifluoro-2,2-dioxido-1,3-dihydrobenzo[c]isothiazol-5-yl)amino)-1H-pyrazol-5-yl)cyclopentyl isopropylcarbamate]
12	358	O=C(NC1(CO)CC1)O[C@H]1CC[C@@H](c2cc(Nc3ccc4c(c3F)CN(C3CC3)S4(=O)=O)n[nH]2)C1 (relative stereo) [Example 360, cis-3-(3-((2-cyclopropyl-4-fluoro-1,1-dioxido-2,3-dihydrobenzo[d]isothiazol-5-yl)amino)-1H-pyrazol-5-yl)cyclopentyl(1-(hydroxymethyl)cyclopropyl)carbamate]
8.4	349	COCC(C)NC(=O)O[C@H]1CC[C@@H](c2cc(Nc3ccc4c(c3F)CN(C3CC3)S4(=O)=O)n[nH]2)C1 (relative stereo) [Example 361, cis-3-(3-((2-cyclopropyl-4-fluoro-1,1-dioxido-2,3-dihydrobenzo[d]isothiazol-5-yl)amino)-1H-pyrazol-5-yl)cyclopentyl(1-methoxypropan-2-yl)carbamate]
1.6	102	COCC(C)(C)NC(=O)O[C@H]1CC[C@@H](c2cc(Nc3ccc4c(c3F)CNS4(=O)=O)n[nH]2)C1 (relative stereo) [Example 364, cis-3-(3-((4-fluoro-1,1-dioxido-2,3-dihydrobenzo[d]isothiazol-5-yl)amino)-1H-pyrazol-5-yl)cyclopentyl(1-methoxy-2-methylpropan-2-yl)carbamate]
> 10000	> 10000	CC(C)NC(=O)O[C@H]1CC[C@@H](c2cc(Nc3cc(CO)c4c(c3F)CNS4(=O)=O)n[nH]2)C1 (relative stereo) [Example 365, cis-3-(3-((4-fluoro-7-(hydroxymethyl)-1,1-dioxido-2,3-dihydrobenzo[d]isothiazol-5-yl)amino)-1H-pyrazol-5-yl)cyclopentyl isopropylcarbamat]
1.7	117	COCC(C)NC(=O)O[C@H]1CC[C@@H](c2cc(Nc3ccc4c(c3F)CS(=O)(=O)N4C3CC3)n[nH]2)C1 (relative stereo) [Example 367, cis-3-(3-((1-cyclopropyl-4-fluoro-2,2-dioxido-1,3-dihydrobenzo[c]isothiazol-5-yl)amino)-1H-pyrazol-5-yl)cyclopentyl(1-methoxypropan-2-yl)carbamate]
1.2	95	CC1(NC(=O)O[C@H]2CC[C@@H](c3cc(Nc4ccc5c(c4F)CS(=O)(=O)N5C4CC4)n[nH]3)C2)CCOC1 (relative stereo) [Example 368, cis-3-(3-((1-cyclopropyl-4-fluoro-2,2-dioxido-1,3-dihydrobenzo[c]isothiazol-5-yl)amino)-1H-pyrazol-5-yl)cyclopentyl(3-methyltetrahydrofuran-3-yl)carbamate]
0.7	13	COCC(C)(C)NC(=O)O[C@H]1CC[C@@H](c2cc(Nc3ccc4c(c3)CS(=O)(=O)N4C)n[nH]2)C1 (relative stereo) [Example 369, cis-3-(3-((1-methyl-2,2-dioxido-1,3-dihydrobenzo[c]isothiazol-5-yl)amino)-1H-pyrazol-5-yl)cyclopentyl(1-methoxy-2-methylpropan-2-yl)carbamate]
1.1	9.7	COCC(C)(C)NC(=O)O[C@H]1CC[C@@H](c2cc(Nc3ccc4c(c3)CS(=O)(=O)N4)n[nH]2)C1 (relative stereo) [Example 370, cis-3-(3-((2,2-dioxido-1,3-dihydrobenzo[c]isothiazol-5-yl)amino)-1H-pyrazol-5-yl)cyclopentyl(1-methoxy-2-methylpropan-2-yl)carbamate]
6.8	395	CC1(NC(=O)O[C@H]2CC[C@@H](c3cc(Nc4ccc5c(c4F)CN(C4CC4)S5(=O)=O)n[nH]3)C2)COC1 (relative stereo) [Example 372, cis-3-(3-((2-cyclopropyl-4-fluoro-1,1-dioxido-2,3-dihydrobenzo[d]isothiazol-5-yl)amino)-1H-pyrazol-5-yl)cyclopentyl(3-methyloxetan-3-yl)carbamate]
5.7	118	CC1(NC(=O)O[C@H]2CC[C@@H](c3cc(Nc4ccc5c(c4F)CS(=O)(=O)N5)n[nH]3)C2)COC1 (relative stereo) [Example 374, cis-3-(3-((4-fluoro-2,2-dioxido-1,3-dihydrobenzo[c]isothiazol-5-yl)amino)-1H-pyrazol-5-yl)cyclopentyl(3-methyloxetan-3-yl)carbamate]
4.6	95	CC1(NC(=O)O[C@H]2CC[C@@H](c3cc(Nc4ccc5c(c4F)CS(=O)(=O)N5)n[nH]3)C2)CCOC1 (relative stereo) [Example 375, cis-3-(3-((4-fluoro-2,2-dioxido-1,3-dihydrobenzo[c]isothiazol-5-yl)amino)-1H-pyrazol-5-yl)cyclopentyl(3-methyltetrahydrofuran-3-yl)carbamate]
2.1	31	COCC(C)(C)NC(=O)O[C@H]1CC[C@@H](c2cc(Nc3ccc4c(c3F)CS(=O)(=O)N4)n[nH]2)C1 (relative stereo) [Example 376, cis-3-(3-((4-fluoro-2,2-dioxido-1,3-dihydrobenzo[c]isothiazol-5-yl)amino)-1H-pyrazol-5-yl)cyclopentyl(1-methoxy-2-methylpropan-2-yl)carbamate]

More lines, now with the values behind:

SMILES	IC50 [1] [nM]	IC50 [2] [nM]
C[C@@H](CO)NC(=O)O[C@H]1CC[C@@H](c2cc(Nc3ccc4c(c3F)CN(C)S4(=O)=O)n[nH]2)C1 (relative stereo) [Example 351, cis-3-(3-((4-fluoro-2-methyl-1,1-dioxido-2,3-dihydrobenzo[d]isothiazol-5-yl)amino)-1H-pyrazol-5-yl)cyclopentyl((S)-1-hydroxypropan-2-yl)carbamate]	40	658
Cc1c(Nc2cc([C@@H]3CC[C@H](OC(=O)NC(C)C)C3)[nH]n2)ccc2c1S(=O)(=O)NC2 (relative stereo) [Example 353, cis-3-(3-((7-methyl-1,1-dioxido-2,3-dihydrobenzo[d]isothiazol-6-yl)amino)-1H-pyrazol-5-yl)cyclopentyl isopropylcarbamate]	2.4	93
C[C@H]1[C@H](O)CN1C(=O)O[C@H]1CC[C@@H](c2cc(Nc3ccc4c(c3)CS(=O)(=O)N4C)n[nH]2)C1 (relative stereo) [Example 354, cis-3-(3-((1-methyl-2,2-dioxido-1,3-dihydrobenzo[c]isothiazol-5-yl)amino)-1H-pyrazol-5-yl)cyclopentyl(2S,3R)-3-hydroxy-2-methylazetidine-1-carboxylate]	11	85
C[C@H]1[C@H](O)CN1C(=O)O[C@H]1CC[C@@H](c2cc(Nc3ccc4c(c3F)CS(=O)(=O)N4C)n[nH]2)C1 (relative stereo) [Example 355, cis-3-(3-((4-fluoro-1-methyl-2,2-dioxido-1,3-dihydrobenzo[c]isothiazol-5-yl)amino)-1H-pyrazol-5-yl)cyclopentyl(2S,3R)-3-hydroxy-2-methylazetidine-1-carboxylate]	19	361
CC(NC(=O)O[C@H]1CC[C@@H](c2cc(Nc3ccc4c(c3F)CN(C3CC3)S4(=O)=O)n[nH]2)C1)C1COC1 (relative stereo) [Example 357, cis-3-(3-((2-cyclopropyl-4-fluoro-1,1-dioxido-2,3-dihydrobenzo[d]isothiazol-5-yl)amino)-1H-pyrazol-5-yl)cyclopentyl(1-(oxetan-3-yl)ethyl)carbamate]	23	817
CC1(NC(=O)O[C@H]2CC[C@@H](c3cc(Nc4ccc5c(c4F)CN(C4CC4)S5(=O)=O)n[nH]3)C2)CCOC1 (relative stereo) [Example 358, cis-3-(3-((2-cyclopropyl-4-fluoro-1,1-dioxido-2,3-dihydrobenzo[d]isothiazol-5-yl)amino)-1H-pyrazol-5-yl)cyclopentyl(3-methyltetrahydrofuran-3-yl)carbamate]	2.6	221
CC1(NC(=O)O[C@H]2CC[C@@H](c3cc(Nc4ccc5c(c4F)CS(=O)(=O)N5C4CC4)n[nH]3)C2)COC1 (relative stereo) [Example 362, cis-3-(3-((1-cyclopropyl-4-fluoro-2,2-dioxido-1,3-dihydrobenzo[c]isothiazol-5-yl)amino)-1H-pyrazol-5-yl)cyclopentyl(3-methyloxetan-3-yl)carbamate]	3.8	133
CCCNC(=O)O[C@H]1CC[C@@H](c2cc(Nc3cc(CO)c4c(c3F)CNS4(=O)=O)n[nH]2)C1 (relative stereo) [Example 366, cis-3-(3-((4-fluoro-7-(hydroxymethyl)-1,1-dioxido-2,3-dihydrobenzo[d]isothiazol-5-yl)amino)-1H-pyrazol-5-yl)cyclopentyl propylcarbamate]	> 10000	> 10000
COCC(C)(C)NC(=O)O[C@H]1CC[C@@H](c2cc(Nc3ccc4c(c3F)CN(C3CC3)S4(=O)=O)n[nH]2)C1 (relative stereo) [Example 371, cis-3-(3-((2-cyclopropyl-4-fluoro-1,1-dioxido-2,3-dihydrobenzo[d]isothiazol-5-yl)amino)-1H-pyrazol-5-yl)cyclopentyl(1-methoxy-2-methylpropan-2-yl)carbamate]	3.5	265
O=C(O[C@H]1CC[C@@H](c2cc(Nc3ccc4c(c3F)CNS4(=O)=O)n[nH]2)C1)N1CCOCC1 (relative stereo) [Example 373, cis-3-(3-((4-fluoro-1,1-dioxido-2,3-dihydrobenzo[d]isothiazol-5-yl)amino)-1H-pyrazol-5-yl)cyclopentyl morpholine-4-carboxylate]	45	1380

Reference: patent publication US20260297080A1, “BICYCLIC COMPOUNDS AS CDK INHIBITORS” (BeOne Medicines I GmbH, priority 2022, published 2026)
